Consider 1 substance from patent US20200147233A1, “METHOD FOR KILLING TUMOR CELLS AND COMPOSITION USED THEREFOR” (PhotoQ3 Inc., priority 2018, published 2020).

Data set [1] relates to HSQ-89 cell line xenograft. Description: Antitumor effects of combined use of IT-Robo1 and PCI on HSQ-89 cell line xenograft mice. In kind it is in vivo. Here is the method:
A supernatant was aspirated from a 10 cmφ dish, in which the HSQ-89 cell line was cultured, and was then washed with D-PBS (Dulbecco's phosphate buffer). Thereafter, 1 ml of 2.5 g/l trypsin/1 mM EDTA solution was added to the resultant, and the obtained mixture was then left at rest for several minutes in a CO2 incubator. After confirming that the cells were peeled from the bottom surface of the dish, 9 ml of the culture solution was added, and centrifugation was then performed at 1,000 rpm at 4° C. for 5 minutes. After that, a supernatant was aspirated, 10 ml of PBS was then added thereto, and the obtained mixture was then centrifuged at 1,000 rpm at 4° C. for 5 minutes. Thereafter, a supernatant was aspirated, 10 ml of PBS was added thereto, and the number of cells was then counted. Again, 10 ml of PBS was added to the cells, and the obtained mixture was then centrifuged at 1,000 rpm at 4° C. for 5 minutes. Thereafter, a supernatant was aspirated, and PBS was added thereto to a cell density of 2×10^7 cell/ml. Basement Membrane Matrix Gel (Corning, N.Y.) that had been cooled on ice was added in an equal amount, and 2×10^6 cells/200 μl were then collected using a 23G needle and a 1-ml syringe that had been cooled on ice. Subsequently, the collected cells were subcutaneously administered (SC) to the right shoulder of 6-weel-old male BALB/cSlc-nu/nu mice to produce xenograft mice (cancer-bearing mice). The size of a tumor was calculated according to the following equation:
Tumor size=π/6×Height (mm)×Width (mm)×Depth (mm) […]
With reference to “Guidelines for Proper Conduct of Animal Experiments (2006)” established by Science Council of Japan, a tumor with a size of 1,000 mm^3 or more, or a drastic reduction in body weight (a reduction of 25% or more of body weight for a week) was set at endpoint, and the mice were euthanized by cervical dislocation. The measurement of a tumor size and evaluation of the body weight were carried out over time, and at the endpoint, the size and weight of the tumor and the body weight were evaluated.

For data set [2], the system named is SAS cells. Description: Cytotoxicity of AlPcS2a itself (photosensitizer tolerance). In kind it is cell-based. The settings on record: AlPcS2a alone with light. The protocol: For the purpose of increasing IT-Robo 1 internalization efficiency, the present inventors have used AlPcS2a, which forms reactive oxygen species as a result of light irradiation and induces destruction of endosome. At first, the cytotoxicity of AlPcS2a itself was examined, and the optimal concentration to various cells was then determined.

As to “aluminum phthalocyanine disulfonic acid [AlPcS2a]”, the “ulcer and crust formation at irradiated site” value in data set [1] (about two days after the irradiation) was “an ulcer was formed at the cancer protrusion site”. For the same substance, the “edema at irradiated site” value in data set [1] (after local irradiation with 650 nm, for several days from the next day, gradually reduced) was “edema was found at the irradiated sites and the surrounding portions thereof”. Moreover, the “time until crust fell off after crust formation” value in data set [1] (mouse, in vivo) is on record as 10 days. For the same substance, in data set [2], the “sensitivity of cells to photosensitizer treatment” value was “weak to the treatment with a photosensitizer”.
